This note sets out measurements from patent US10221173B2, “Chemical compounds” (AstraZeneca AB, priority 2017, dated 2019).

Data set [1] deals with recombinant human Estrogen Receptor alpha ligand binding domain (ER alpha-LBD (GST)) (Homo sapiens (Human), UniProt P03372). Description: ERα binding assay (LanthaScreen TR-FRET competition). For orientation: Time-resolved FRET reads energy transfer from a long-lived donor to a nearby acceptor.
Data set [2] concerns the target Estrogen Receptor (ERα) in MCF-7 cells (Homo sapiens (Human), UniProt P03372). Description: MCF-7 ER down-regulation assay (immuno-fluorescence). Format: cell-based.
Data set [3] in a line: Log D (shake flask, 1-octanol/aqueous buffer). The conditions noted are these: for logD: 1-octanol/aqueous buffer, pH 7.4, pH 7.4. Format: physicochemical.
The nature of data set [4]: Thermodynamic solubility (shake-flask). It counts as physicochemical. The note with it: phosphate buffer pH 7.4, 24 hours.
Description: The thermodynamic solubility of a research compound is measured under standard conditions. It is a shake-flask approach that uses 10 mM DMSO solutions which are supplied from the Compound Managements liquid store and is a high throughput method. The dried compounds are equilibrated in an aqueous phosphate buffer (pH 7.4) for 24 hours at 25° C., the portion with the dissolved compound is then separated from the remains. The solutions are analyzed and quantified using UPLC/MS/MS, QC-samples are incorporated in each assay-run to ensure the quality of the assay.
Data set [5] can be described thus: Human plasma protein binding (equilibrium dialysis). Format: in vitro ADME.
Description: The automated equilibrium dialysis assay in human plasma uses the RED (Rapid Equilibrium Dialysis) Device and sample handling. The assay generally runs over two to three days including delivery of results. After dialysis for 18 hours, plasma and buffer samples are prepared for analysis by liquid chromatography and mass spectrometry. Samples are generally tested in singlicates and quantified by LC/MSMS by using a 7-point calibration curve in plasma. The compounds are pooled together in plasma pools up to 10 compounds. Three reference compounds are used in each run, Propranolol, Metoprolol and Warfarin. Warfarin is used as a control in each pool and Propranolol and Metoprolol are placed randomly in each run. An in-house Excel macro is used for preparation of files for the robot and the mass spectrometer and is also used for the calculations of fraction unbound (fu %) in plasma.
Data set [6] concerns the target hERG potassium channel (Homo sapiens (Human), UniProt Q12809).
Description: The assay was conducted as follows with all reagents used at room temperature unless otherwise stated.
All compounds were acoustically dispensed in quadruplicate using a Labcyte Echo.
Calculation of results is performed using APC package within Genedata. For the routine normalization of well data with Neutral and Inhibitor control well groups as reference, GeneData Assay Analyzer uses the following equation to normalize the signal values to the desired signal range:
[formula] x is the measured raw signal value of a well is the median of the measured signal values for the Central Reference (Neutral) wells on a plate is the median of the measured signal values for the Scale Reference (Inhibitor) wells on a plate CR is the desired median normalized value for the Central Reference (Neutral) SR is the desired median normalized value for the Scale Reference (Inhibitor)
The mark [7] stands for this setting: aqueous phosphate buffer, 25 °C, pH 7.4, aqueous buffer, thermodynamic from solid.

Each structure is given as a SMILES string. In brackets after ≈: the same amount, converted by molar mass.

As a reminder, the IC50 is the midpoint of a concentration-inhibition curve. As a reminder, the logD is lipophilicity at a set pH, counting ionised and neutral species. A higher logD goes with a more lipophilic compound. By solubility is commonly meant how much of the substance goes into solution per volume. A high value points to a readily soluble substance.

Sequence of hERG potassium channel (Q12809 whole entry): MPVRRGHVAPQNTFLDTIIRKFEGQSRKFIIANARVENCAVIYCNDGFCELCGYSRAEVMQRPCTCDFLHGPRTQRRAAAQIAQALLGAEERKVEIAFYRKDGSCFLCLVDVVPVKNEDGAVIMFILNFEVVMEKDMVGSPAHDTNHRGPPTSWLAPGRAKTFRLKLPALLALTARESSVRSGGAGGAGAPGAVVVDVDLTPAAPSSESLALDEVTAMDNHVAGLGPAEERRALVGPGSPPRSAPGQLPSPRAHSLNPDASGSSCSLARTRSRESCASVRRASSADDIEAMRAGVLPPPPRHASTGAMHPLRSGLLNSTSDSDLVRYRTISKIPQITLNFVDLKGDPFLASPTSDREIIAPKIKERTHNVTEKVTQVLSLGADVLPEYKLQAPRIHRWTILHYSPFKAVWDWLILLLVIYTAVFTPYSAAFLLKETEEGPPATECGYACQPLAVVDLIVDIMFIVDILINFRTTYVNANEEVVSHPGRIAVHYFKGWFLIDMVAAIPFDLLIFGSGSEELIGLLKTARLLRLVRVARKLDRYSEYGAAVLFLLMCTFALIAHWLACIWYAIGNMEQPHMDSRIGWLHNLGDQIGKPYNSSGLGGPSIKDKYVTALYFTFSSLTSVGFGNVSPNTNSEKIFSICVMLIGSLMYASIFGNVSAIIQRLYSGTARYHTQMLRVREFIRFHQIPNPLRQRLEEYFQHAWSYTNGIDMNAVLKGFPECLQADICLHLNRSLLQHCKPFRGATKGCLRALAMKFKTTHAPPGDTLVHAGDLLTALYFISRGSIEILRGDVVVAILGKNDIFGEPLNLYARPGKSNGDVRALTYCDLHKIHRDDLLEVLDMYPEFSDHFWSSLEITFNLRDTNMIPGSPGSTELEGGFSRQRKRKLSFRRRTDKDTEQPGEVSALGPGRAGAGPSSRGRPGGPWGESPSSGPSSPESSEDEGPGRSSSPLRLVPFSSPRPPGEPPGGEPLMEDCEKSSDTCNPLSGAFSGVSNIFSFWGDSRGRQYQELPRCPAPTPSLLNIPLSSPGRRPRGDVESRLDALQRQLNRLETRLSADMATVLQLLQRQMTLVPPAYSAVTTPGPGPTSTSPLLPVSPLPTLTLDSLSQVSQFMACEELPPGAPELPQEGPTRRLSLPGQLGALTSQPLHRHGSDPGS
Sequence of Estrogen Receptor (ERα) in MCF-7 cells (P03372 whole entry): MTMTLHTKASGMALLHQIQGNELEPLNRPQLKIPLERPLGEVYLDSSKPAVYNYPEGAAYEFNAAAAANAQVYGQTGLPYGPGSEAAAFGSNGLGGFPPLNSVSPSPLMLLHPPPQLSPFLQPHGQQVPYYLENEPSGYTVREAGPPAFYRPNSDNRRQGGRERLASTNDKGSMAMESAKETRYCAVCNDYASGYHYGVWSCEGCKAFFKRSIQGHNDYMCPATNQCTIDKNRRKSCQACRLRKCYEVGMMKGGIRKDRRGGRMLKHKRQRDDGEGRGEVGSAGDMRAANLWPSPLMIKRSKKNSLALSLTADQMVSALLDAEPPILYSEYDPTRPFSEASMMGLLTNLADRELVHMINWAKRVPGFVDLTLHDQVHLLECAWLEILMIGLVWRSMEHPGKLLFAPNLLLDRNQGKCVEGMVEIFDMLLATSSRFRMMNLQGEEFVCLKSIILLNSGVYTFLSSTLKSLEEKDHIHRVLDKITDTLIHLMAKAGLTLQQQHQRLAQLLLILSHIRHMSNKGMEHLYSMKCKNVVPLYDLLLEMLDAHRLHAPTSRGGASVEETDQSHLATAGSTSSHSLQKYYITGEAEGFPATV
Sequence of recombinant human Estrogen Receptor alpha ligand binding domain (ER alpha-LBD (GST)) (P03372 307-554): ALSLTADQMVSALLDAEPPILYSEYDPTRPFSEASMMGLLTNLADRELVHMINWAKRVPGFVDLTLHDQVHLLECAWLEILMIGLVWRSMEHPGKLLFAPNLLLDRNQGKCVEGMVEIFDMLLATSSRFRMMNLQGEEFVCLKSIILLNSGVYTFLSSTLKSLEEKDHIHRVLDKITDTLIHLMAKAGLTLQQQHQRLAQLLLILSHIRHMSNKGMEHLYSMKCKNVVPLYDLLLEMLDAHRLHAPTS

`Cc1c(OCCN(C)CCCF)ncc(F)c1[C@@H]1c2[nH]c3ccccc3c2C[C@@H](C)N1C(C)CC(=O)O` (single isomer, unassigned) [Example 158]: the IC50 in data set [1] is 1.5 nM; in data set [2], 1 nM; in data set [6] it was greater than 40000 nM. The logD in data set [3] is 1.8. This compound also came in with a solubility at 24 h in data set [4] (setting [7]) greater than 1000 µM. The “Human plasma protein binding (% free)” value in data set [5] was determined as 21 % free.

As to `Cc1c(OCCN(C)CCCF)ncc(F)c1[C@@H]1c2[nH]c3ccccc3c2C[C@@H](C)N1C(C)CC(=O)O` (single isomer, unassigned) [Example 159], the half-inhibitory concentration (IC50) in data set [1] was 0.9 nM; in data set [2] it was 0.18 nM; in data set [6], greater than 40000 nM. Moreover, in data set [3] (pH 7.4), the “LogD pH 7.4” value was 1.7. The compound also registered a solubility at 24 h in data set [4] (25° C.) greater than 1000 µM. In data set [5], the “Human plasma protein binding (% free)” value was found to be 13 % free.

As for `C[C@@H]1Cc2c([nH]c3ccccc23)[C@@H](c2cccc(OCCNCCCF)c2Cl)N1CC(F)(F)F` [Example 25, N-(2-(2-chloro-3-((1R,3R)-3-methyl-2-(2,2,2-trifluoroethyl)-2,3,4,9-tetrahydro-1H-pyrido[3,4-b]indol-1-yl)phenoxy)ethyl)-3-fluoropropan-1-amine], the IC50 in data set [1] is 0.88 nM; in data set [2], 0.25 nM; in data set [6], 5200 nM. The compound further had a logD in data set [3] of 4.3. Further, in data set [4] (setting [7]), the solubility at 24 h came out at 19 µM (≈ 9.46 µg/mL). For the same compound, in data set [5], the “Human plasma protein binding (% free)” value amounted to 0.080 % free.

Consider `COc1ccc(OCCNCCCF)c(C)c1[C@@H]1c2[nH]c3ccccc3c2C[C@@H](C)N1CC(F)(F)F` [Example 26, 3-fluoro-N-(2-(4-methoxy-2-methyl-3-((1R,3R)-3-methyl-2-(2,2,2-trifluoroethyl)-2,3,4,9-tetrahydro-1H-pyrido[3,4-b]indol-1-yl)phenoxy)ethyl)propan-1-amine], for which the IC50 in data set [1] was determined as 0.85 nM; in data set [2], 0.16 nM; in data set [6], 4100 nM. In data set [3], this compound displayed a log distribution coefficient (logD) of 4.6. This compound registered a solubility at 24 h in data set [4] (setting [7]) of 8 µM (≈ 4.06 µg/mL). In addition, in data set [5], the “Human plasma protein binding (% free)” value worked out at 0.22 % free.

In the case of `COc1c(F)cc(OCCNCCCF)cc1[C@@H]1c2[nH]c3ccccc3c2C[C@@H](C)N1CC(F)(F)F` [Example 27, 3-fluoro-N-(2-(3-fluoro-4-methoxy-5-((1R,3R)-3-methyl-2-(2,2,2-trifluoroethyl)-2,3,4,9-tetrahydro-1H-pyrido[3,4-b]indol-1-yl)phenoxy)ethyl)propan-1-amine], the IC50 in data set [1] turned out to be 2.7 nM; in data set [2], 1.6 nM; in data set [6], 4800 nM. In data set [3], the pH-dependent lipophilicity (logD) stood at 4.2. The compound further had a solubility at 24 h in data set [4] (setting [7]) of 6 µM (≈ 3.07 µg/mL). Further, the “Human plasma protein binding (% free)” value in data set [5] was 0.42 % free.

Consider `COc1c(F)cc(OCCNCCCF)c(F)c1[C@@H]1c2[nH]c3ccccc3c2C[C@@H](C)N1CC(F)(F)F` [Example 29, N-(2-(2,5-difluoro-4-methoxy-3-((1R,3R)-3-methyl-2-(2,2,2-trifluoroethyl)-2,3,4,9-tetrahydro-1H-pyrido[3,4-b]indol-1-yl)phenoxy)ethyl)-3-fluoropropan-1-amine], for which the IC50 turned out to be 2 nM in data set [1], 0.44 nM in data set [2] and 5100 nM in data set [6]. The compound also had a logD in data set [3] greater than 3.2. The solubility at 24 h in data set [4] (setting [7]) is 58 µM (≈ 30.7 µg/mL). The “Human plasma protein binding (% free)” value in data set [5] is recorded as less than 3.2 % free.

Consider `C[C@@H]1Cc2c([nH]c3ccccc23)[C@@H](c2cc(OCCNCCCF)cc(F)c2F)N1CC(F)(F)F` [Example 30, N-(2-(3,4-difluoro-5-((1R,3R)-3-methyl-2-(2,2,2-trifluoroethyl)-2,3,4,9-tetrahydro-1H-pyrido[3,4-b]indol-1-yl)phenoxy)ethyl)-3-fluoropropan-1-amine], for which the results for the half-maximal inhibitory concentration (IC50) in data set [1], in data set [2] and in data set [6] were 2.1 nM, 0.32 nM and 2300 nM, respectively. In data set [3], this compound showed a logD of 4.1. Further, the solubility at 24 h in data set [4] (setting [7]) was 39 µM (≈ 19.5 µg/mL). Moreover, the “Human plasma protein binding (% free)” value in data set [5] is given as 0.72 % free.

With `C[C@@H]1Cc2c([nH]c3ccccc23)[C@@H](c2cc(F)cc(OCCNCCCF)c2F)N1CC(F)(F)F` [Example 31, N-(2-(2,5-difluoro-3-((1R,3R)-3-methyl-2-(2,2,2-trifluoroethyl)-2,3,4,9-tetrahydro-1H-pyrido[3,4-b]indol-1-yl)phenoxy)ethyl)-3-fluoropropan-1-amine], the results for the concentration for half-maximal inhibition (IC50) in data set [1], in data set [2] and in data set [6] were 5.4 nM, 7.2 nM and 11000 nM, respectively. In addition, the pH-dependent lipophilicity (logD) in data set [3] stood at 4.1. In data set [4] (setting [7]), the solubility at 24 h was determined as 40 µM (≈ 20 µg/mL). In data set [5], the “Human plasma protein binding (% free)” value is listed as 0.41 % free.

`C[C@@H]1Cc2c([nH]c3ccccc23)[C@@H](c2c(F)c(F)cc(OCCNCCCF)c2F)N1CC(F)(F)F` [Example 32, 3-fluoro-N-(2-(2,4,5-trifluoro-3-((1R,3R)-3-methyl-2-(2,2,2-trifluoroethyl)-2,3,4,9-tetrahydro-1H-pyrido[3,4-b]indol-1-yl)phenoxy)ethyl)propan-1-amine]: the IC50 was 2.7 nM in data set [1], 0.38 nM in data set [2] and 5800 nM in data set [6]. This compound also registered a pH-dependent lipophilicity (logD) in data set [3] of 4.1. Also, in data set [4] (setting [7]), the solubility at 24 h came to 55 µM (≈ 28.5 µg/mL). Further, in data set [5], the “Human plasma protein binding (% free)” value is 0.52 % free.

In the case of `C[C@@H]1Cc2c([nH]c3ccccc23)[C@@H](c2cc(OCCNCCCF)ncc2F)N1CC(F)(F)F` [Example 39, 3-fluoroN-(2-((5-fluoro-4-((1R,3R)-3-methyl-2-(2,2,2-trifluoroethyl)-2,3,4,9-tetrahydro-1H-pyrido[3,4-b]indol-1-yl)pyridin-2-yl)oxy)ethyl)propan-1-amine], the IC50 stood at 1.4 nM in data set [1], 0.26 nM in data set [2] and 3900 nM in data set [6]. The compound further showed a logD in data set [3] of 3.6. In data set [4] (setting [7]), this compound had a solubility at 24 h of 259 µM (≈ 125 µg/mL).

Turning to `COc1cnc(NCCNCCCF)cc1[C@@H]1c2[nH]c3ccccc3c2C[C@@H](C)N1CC(F)(F)F` [Example 42], the figures for the IC50 in data set [1], in data set [2] and in data set [6] were 3.7 nM, 1.9 nM and 7100 nM, respectively. In data set [3], this compound had a logD of 2.9. The same compound registered a solubility at 24 h in data set [4] (setting [7]) of 349 µM (≈ 172 µg/mL).

Regarding `COc1ccc(O[C@@H](C)CNCCCF)cc1[C@@H]1c2[nH]c3ccccc3c2C[C@@H](C)N1CC(F)(F)CO` [Example 48, 2,2-difluoro-3-((1R,3R)-1-(5-(((S)-1-((3-fluoropropyl)amino)propan-2-yl)oxy)-2-methoxyphenyl)-3-methyl-1,3,4,9-tetrahydro-2H-pyrido[3,4-b]indol-2-yl)propan-1-ol], the IC50 turned out to be 4.4 nM in data set [1], 13 nM in data set [2] and 2700 nM in data set [6]. For the same compound, the log distribution coefficient (logD) in data set [3] is 2.8. In data set [4] (setting [7]), this compound had a solubility at 24 h of 307 µM (≈ 160 µg/mL).

The compound `C[C@@H]1Cc2c([nH]c3ccccc23)[C@@H](c2nccc(OCCNCCCF)c2Cl)N1CC(F)(F)F` [Example 93, N-(2-((3-chloro-2-((1S,3R)-3-methyl-2-(2,2,2-trifluoroethyl)-2,3,4,9-tetrahydro-1H-pyrido[3,4-b]indol-1-yl)pyridin-4-yl)oxy)ethyl)-3-fluoropropan-1-amine] displayed a logD in data set [3] of 4.3. In addition, the solubility at 24 h in data set [4] (setting [7]) was 0.5 µM (≈ 0.249 µg/mL). Also, the “Human plasma protein binding (% free)” value in data set [5] is 0.34 % free. In data set [6], it took 6600 nM to reach half-maximal inhibition (IC50).

`C[C@@H]1Cc2c([nH]c3ccccc23)[C@@H](c2nccc(OCCNCCCF)c2F)N1CC(F)F` [Example 98, N-(2-((2-((1S,3R)-2-(2,2-difluoroethyl)-3-methyl-2,3,4,9-tetrahydro-1H-pyrido[3,4-b]indol-1-yl)-3-fluoropyridin-4-yl)oxy)ethyl)-3-fluoropropan-1-amine]: the results for the 50% inhibitory concentration (IC50) in data set [1], in data set [2] and in data set [6] were 1.9 nM, 1.2 nM and greater than 32000 nM, respectively. In data set [3], this compound displayed a pH-dependent lipophilicity (logD) of 2.3. In data set [4] (setting [7]), this compound came in with a solubility at 24 h of 594 µM (≈ 276 µg/mL).

For the compound `C[C@@H]1Cc2c([nH]c3ccccc23)[C@@H](c2nccc(OCCNCCCF)c2F)N1CC1(F)CC1` [Example 99, 3-fluoro-N-(2-((3-fluoro-2-((1S,3R)-2-((1-fluorocyclopropyl)methyl)-3-methyl-2,3,4,9-tetrahydro-1H-pyrido[3,4-b]indol-1-yl)pyridin-4-yl)oxy)ethyl)propan-1-amine], the IC50 in data set [1] amounted to 3.4 nM; in data set [2], 3.8 nM; in data set [6] it was 20000 nM. The pH-dependent lipophilicity (logD) in data set [3] is 2.1. Besides, in data set [4] (setting [7]), the solubility at 24 h worked out at 285 µM (≈ 135 µg/mL).

Turning to `C[C@@H]1Cc2c([nH]c3ccccc23)[C@@H](c2nccc(OCCNCCCF)c2F)N1CC1(F)COC1` [Example 100, 3-fluoro-N-(2-((3-fluoro-2-((1S,3R)-2-((3-fluorooxetan-3-yl)methyl)-3-methyl-2,3,4,9-tetrahydro-1H-pyrido[3,4-b]indol-1-yl)pyridin-4-yl)oxy)ethyl)propan-1-amine], the results for the half-inhibitory concentration (IC50) in data set [1], in data set [2] and in data set [6] were 5.2 nM, 11 nM and 19000 nM, respectively. In data set [3], this compound displayed a logD of 2.5. Further, in data set [4] (setting [7]), the solubility at 24 h is greater than 1000 µM.

As for `Cc1c(OCCN(C)CCCF)ccc(F)c1[C@@H]1c2[nH]c3ccccc3c2C[C@@H](C)N1CCC(=O)O` [Example 163, 3-((1R,3R)-1-(6-fluoro-3-(2-((3-fluoropropyl)(methyl)amino)ethoxy)-2-methylphenyl)-3-methyl-1,3,4,9-tetrahydro-2H-pyrido[3,4-b]indol-2-yl)propanoic acid], the figures for the concentration for half-maximal inhibition (IC50) in data set [1] and in data set [2] were 3.3 nM and 1.2 nM, respectively. The logD in data set [3] is 0.7. The compound further showed a solubility at 24 h in data set [4] (setting [7]) greater than 1000 µM. In addition, in data set [5], the “Human plasma protein binding (% free)” value is reported as 49 % free.
